Where two headings read alike, the source gives them in different places.
Columns and labels:
[1] = test system: electrically induced convulsions (MES) in rats; assay: maximal electroshock seizure test (MES), rats, oral; assay type: in vivo, rat; settings: for N/F (fraction of rats responded): MES; for ED50: Rattus norvegicus, oral administration, read-out: ED50 (median effective dose) in the MES model
Description: (§1) The first model, the maximal electroshock seizure test (MES), is used to show efficacy for antiepileptic agents against partial and generalized seizure type epilepsy, the common epilepsy among therapy resistant epileptic patients. The second model, the subcutaneous metrazole test (scMet) measures seizure threshold and is a standard screening procedure to show efficacy for agents against seizure threshold and absence seizures.

rats [2] = assay: neurotoxicity, gait and stance test, rats, po; settings: for protective index or safety of margin TD50/ED50: TD50 / MES ED50
Experimental: (§2) Neurotoxicity of the claimed agents was assessed in mice (ip. administration) in the rotorod ataxia test and in rats (po. administration) in the gait and stance test which assesses minimal neurotoxicity. The term qauntitating the neurotoxicity is the median neurological toxic dose (TD50).
The protective index (PI) is defined as the ratio of TD50 and ED50 (PI=TD50/ED50). The PI is used to show a useful separation between neurotoxicity and antiepileptic activity. The larger the PI, the better the separation between neurotoxicity and efficacious doses.

[3] = test system: chemically induced convulsions (scMet) in mice; assay: subcutaneous metrazole test (scMet), mice, ip; assay type: in vivo; settings: Mus musculus, read-out: ED50 in the scMet model
Description: as §1

[4] = test system: electrically induced convulsions (MES) in mice; assay: maximal electroshock seizure test (MES), mice, ip; assay type: in vivo; settings: Mus musculus, ip administration, read-out: ED50 in the MES model
Description: as §1

[5] = test system: chemically induced convulsions (scMet) in rats; assay: subcutaneous metrazole test (scMet), rats, oral; assay type: in vivo, rat; settings: for ED50: Rattus norvegicus, po, read-out: ED50 in the scMet model; for N/F (fraction of rats responded): scMET
Description: as §1

[6] = test system: tactile allodynia in SNL rats; assay: rat spinal nerve ligation (SNL) model for neuropathic pain, von Frey filaments; assay type: in vivo
Experimental: Experiments were performed on male Sprague-Dawley rats (Harlan laboratories, Jerusalem, Israel) weighing 175–200 g. The mechanical sensitivity (tactile allodynia) of the foot was quantified by the occurrence of foot withdrawal in response to normally innocuous mechanical stimuli using nine different von Frey filaments (VFF) ranging from 0.6 to 26 g. The rats were placed on a metal mesh floor covered with a transparent plastic dome and a period of acclimatization was allowed prior to testing. VFF were applied from underneath the mesh floor to the plantar surface of the foot. Each trial consisted of repeated applications of each of the VFFs in an ascending order for 5 times, each for a period of 1 s. If the rat withdrew the foot at least 3 times out of 5 at a specific VFF no further ascending filaments were tested and this filament was considered as a withdrawal threshold (response). Mechanical stimulus trials with the series of ascending VFF were repeated 2 times for a given time point. The repeated measurements were averaged and taken as the paw withdrawal threshold on a given time point.
For drug testing, the effect on neuropathic pain was measured 5–6 days following operation. Rats responding to mechanical stimuli of 10 g or less (in the operated leg) were eligible for the study.
The procedure of ligation and cut of the spinal nerves for induction of neuropathic pain was performed as previously described by Sheen and Chung (Sheen, K. and Chung, J. M., Signs of neuropathic pain depend on signals from injured nerve fibers in a rat model, Brain Research 610: 62–68 (1993)). Briefly, under ketamine-xylazine anaesthesia rats were placed in a prone position and the left paraspinal muscles were separated from spinous processes at the L4-S2 level. Part of the L6 transverse process was removed and the L4–L6 spinal nerves were identified. The L5–L6 spinal nerves were isolated and tightly ligated and cut, distal to the dorsal root ganglion and proximal to the formation of the sciatic nerve. Following complete […] the wound was sutured.
For all the studies, appropriate amounts of the tested compound were suspended in 0.5% methylcellulose to a volume of 4 mL/kg body weight. TMC-Urea and methylcellulose (MC, vehicle) were administered intraperitoneally (i.p) to rats at postoperative days 7, 14 and 21 in a double blind randomized crossover manner.
Rats that obtained threshold of 15 g and above, back to pre-operation baseline, were regarded free of tactile allodynia.
Median effective dose (ED50) and its 95% confidence intervals were calculated using the pharmacodynamic software package WinNonlin, version 4.0.1 (SCI Software, Lexington, Ky., U.S.A.).
Threshold data from VFF testing are presented as actual threshold (absolute) in grams and as percent of absolute responders.
For statistical analyses the nonparametric two-tailed Mann-Whitney U was used. A p value less than 0.05 was considered significant.

[7] = neurotoxicity, rotorod ataxia test, mice, ip; settings: mouse, in vivo
Experimental: as §2

[8] = test system: electrically induced convulsions (MES) in mice; settings: literature comparison; cited from earlier work
[9] = test system: chemically induced convulsions (scMet) in rats; settings: literature comparison, inactive at 250 mg/kg; cited from earlier work
rats [10] = settings: comparison values; cited from earlier work
[11] = test system: electrically induced convulsions (MES) in rats; settings: literature comparison; cited from earlier work
mouse model = settings: cited from earlier work
[12] = test system: animal models of epilepsy; settings: cited from earlier work

CC1(C)C(C(=O)NC(N)=O)C1(C)C [Compound I, N-2,2,3,3-tetramethylcyclopropanecarbonyl urea]
N/F (fraction of rats responded) ([1]; dose 10 mg/kg): 0/8
N/F (fraction of rats responded) ([1]; dose 20 mg/kg): 4/8
N/F (fraction of rats responded) ([1]; dose 40 mg/kg): 5/8
N/F (fraction of rats responded) ([1]; dose 80 mg/kg): 7/8
ED50 [1]: 29.4 mg/kg
protective index or safety of margin TD50/ED50 (rats [2]): 18.5
TD50 (median neurological toxic dose) (rats [2]; oral administration): 538 mg/kg
ED50 [3]: 125 mg/kg
ED50 [4]: 90 mg/kg
ED50 [5]: 91.8 mg/kg
N/F (fraction of rats responded) ([5]; dose 25 mg/kg): 1/8
N/F (fraction of rats responded) ([5]; dose 50 mg/kg): 3/8
N/F (fraction of rats responded) ([5]; dose 100 mg/kg): 3/8
N/F (fraction of rats responded) ([5]; dose 200 mg/kg): 6/8
N/F (fraction of rats responded) ([5]; dose 400 mg/kg): 8/8
Allodynic response, Total responders ([6]; 20 mg/kg ip): 0/9
Allodynic response (number of rats responded/total number of rats) ([6]; 20 mg/kg ip, 30 min): 0/9
Allodynic response (number of rats responded/total number of rats) ([6]; 20 mg/kg ip, 60 min): 0/9
Allodynic response (number of rats responded/total number of rats) ([6]; 20 mg/kg ip, 120 min): 0/9
Allodynic response (number of rats responded/total number of rats) ([6]; 20 mg/kg ip, 180 min): 0/9
Allodynic response (number of rats responded/total number of rats) ([6]; 20 mg/kg ip, 240 min): 0/9
Allodynic response, Total responders ([6]; 60 mg/kg ip): 0/9
Allodynic response (number of rats responded/total number of rats) ([6]; 60 mg/kg ip, 30 min): 0/9
Allodynic response (number of rats responded/total number of rats) ([6]; 60 mg/kg ip, 60 min): 0/9
Allodynic response (number of rats responded/total number of rats) ([6]; 60 mg/kg ip, 120 min): 0/9
Allodynic response (number of rats responded/total number of rats) ([6]; 60 mg/kg ip, 180 min): 0/9
Allodynic response (number of rats responded/total number of rats) ([6]; 60 mg/kg ip, 240 min): 0/9
Allodynic response, Total responders ([6]; 120 mg/kg ip): 3/9
Allodynic response (number of rats responded/total number of rats) ([6]; 120 mg/kg ip, 30 min): 0/9
Allodynic response (number of rats responded/total number of rats) ([6]; 120 mg/kg ip, 60 min): 1/9
Allodynic response (number of rats responded/total number of rats) ([6]; 120 mg/kg ip, 120 min): 3/9
Allodynic response (number of rats responded/total number of rats) ([6]; 120 mg/kg ip, 180 min): 3/9
Allodynic response (number of rats responded/total number of rats) ([6]; 120 mg/kg ip, 240 min): 3/9
Allodynic response, Total responders ([6]; 180 mg/kg ip): 3/7
Allodynic response (number of rats responded/total number of rats) ([6]; 180 mg/kg ip, 30 min): 0/7
Allodynic response (number of rats responded/total number of rats) ([6]; 180 mg/kg ip, 60 min): 1/7
Allodynic response (number of rats responded/total number of rats) ([6]; 180 mg/kg ip, 120 min): 3/7
Allodynic response (number of rats responded/total number of rats) ([6]; 180 mg/kg ip, 180 min): 3/7
Allodynic response (number of rats responded/total number of rats) ([6]; 180 mg/kg ip, 240 min): 3/7
Allodynic response, Total responders ([6]; 240 mg/kg ip): 9/10
Allodynic response (number of rats responded/total number of rats) ([6]; 240 mg/kg ip, 30 min): 0/10
Allodynic response (number of rats responded/total number of rats) ([6]; 240 mg/kg ip, 60 min): 2/10
Allodynic response (number of rats responded/total number of rats) ([6]; 240 mg/kg ip, 120 min): 8/10
Allodynic response (number of rats responded/total number of rats) ([6]; 240 mg/kg ip, 180 min): 8/10
Allodynic response (number of rats responded/total number of rats) ([6]; 240 mg/kg ip, 240 min): 8/10
ED50 ([6]; Rattus norvegicus, ip, 2 h, i.p., at 120 min post-dose, read-out: ED50 (antiallodynic, rats free of tactile allodynia)): 171 mg/kg
effect on tactile allodynia ([6]; i.p., significant reduction at 120 to 240 min at 120-240 mg/kg): decreased tactile allodynia in a dose-dependent manner

CONC(=O)C1C(C)(C)C1(C)C [Compound V, N-methoxy-2,2,3,3-tetramethylcyclopropane carboxamide]
ED50 [3]: 74 mg/kg
ED50 [4]: 115 mg/kg
TD50 [7]: 166 mg/kg
ED50 [5]: 35 mg/kg

CC1(C)C(C(=O)NCC(N)=O)C1(C)C [TMC glycinamide, N-2,2,3,3-tetramethylcyclopropyl carbonyl-glycinamide]
ED50 in mice-MES [8]: 173 mg/kg
ED50 in the scMet model [9]: > 250 mg/kg
TD50 (median neurological toxic dose) (rats [10]): above 500 mg/kg
protective index or safety of margin TD50/ED50 (rats [2]): > 6.1
ED50 in rat-MES [11]: 82 mg/kg

CC1(C)C(C(=O)Nc2nnc(S(N)(=O)=O)s2)C1(C)C [Compound VI, 5-(2,2,3,3-tetramethylcyclopropanecarbonylamido)-1,3,4-thiadiazole-2-sulfonamide]
ED50 [4]: 16 mg/kg

CN(C)C(=O)NC(=O)C1C(C)(C)C1(C)C [II, 1,1-N,N-dimethyl-2,2,3,3-tetramethylcyclopropanecarbonyl urea]
ED50 [1]: 87 mg/kg
neurotoxicity (rats [2]; oral, doses up to 500 mg/kg): no neurotoxicity

CC1(C)C(C(N)=O)C1(C)C [tetramethylcyclopropane carboxamide]
teratogenicity (mouse model; mouse model): not teratogenic

CNC(=O)C1C(C)(C)C1(C)C [M-TMCD, N-methyl 2,2,3,3-tetramethylcyclopropane carboxamide]
ED50 in mice-MES [8]: 99 mg/kg
anticonvulsant potency relative to VPA [12]: approximately 10 times
teratogenicity (mouse model; mouse, in vivo): not teratogenic
protective index or safety of margin TD50/ED50 (rats [2]): 2
ED50 in rat-MES [11]: 82 mg/kg

From patent US7232929B2, “Amide derivatives of 2,2,3,3-tetramethylcyclopropane carboxylic acid” (Yissum Research Development Company of the Hebrew …, priority 2003, dated 2007)
